Results as given in ChEMBL document CHEMBL1201861, “Genomics of Drug Sensitity in Cancer screening data, Wellcome Trust Sanger Institute”.

Assays:
Experiment in all cases: cells
Format in all cases: functional, cell-based, Homo sapiens
D-336MG = settings: Homo sapiens, D-336MG
Description: SANGER: Inhibition of human D-336MG cell growth in a cell viability assay.

GR-ST = settings: Homo sapiens, GR-ST
Description: SANGER: Inhibition of human GR-ST cell growth in a cell viability assay.

HCC1937 = settings: Homo sapiens, HCC1937;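 further: growth inhibition measured with a cell viability read-out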
Description: SANGER: Inhibition of human HCC1937 cell growth in a cell viability assay.

K562 = settings: Homo sapiens, K562
Description: SANGER: Inhibition of human K-562 cell growth in a cell viability assay.

KLE = settings: Homo sapiens, KLE;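 further: growth inhibition of human KLE cells, read out with a cell viability assay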
Description: SANGER: Inhibition of human KLE cell growth in a cell viability assay.

KYSE-510 = settings: Homo sapiens, KYSE-510;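 further: cell viability readout used to measure how strongly growth of the cell line is suppressed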
Description: SANGER: Inhibition of human KYSE-510 cell growth in a cell viability assay.

LU-139 = settings: Homo sapiens, LU-139
Description: SANGER: Inhibition of human LU-139 cell growth in a cell viability assay.

LXF-289 cell line = settings: Homo sapiens, LXF-289
Description: SANGER: Inhibition of human LXF-289 cell growth in a cell viability assay.

SNU-C2B = settings: Homo sapiens, SNU-C2B;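 further: cell viability readout used to measure compound-driven suppression of SNU-C2B cell proliferation, IC50 marking half-maximal growth inhibition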
Description: SANGER: Inhibition of human SNU-C2B cell growth in a cell viability assay.

SW900 = settings: Homo sapiens, SW900;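 further: IC50 is the concentration that inhibits SW900 cell growth, measured by a cell viability assay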
Description: SANGER: Inhibition of human SW900 cell growth in a cell viability assay.

A388 = settings: Homo sapiens, A388;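 further: growth inhibition of human A388 cells, read out with a cell viability assay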
Description: SANGER: Inhibition of human A388 cell growth in a cell viability assay.

C8166 = settings: Homo sapiens, C8166;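 further: growth inhibition of human C8166 cells measured by a cell viability assay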
Description: SANGER: Inhibition of human C8166 cell growth in a cell viability assay.

CAL-12T = settings: Homo sapiens, CAL-12T;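 further: growth inhibition of human CAL-12T cells, read out with a cell viability assay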
Description: SANGER: Inhibition of human CAL-12T cell growth in a cell viability assay.

VMRC-RCZ = settings: Homo sapiens, VMRC-RCZ;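 further: growth inhibition measured with a cell viability assay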
Description: SANGER: Inhibition of human VMRC-RCZ cell growth in a cell viability assay.

BHT-101 = settings: Homo sapiens, BHT-101
Description: SANGER: Inhibition of human BHT-101 cell growth in a cell viability assay.

Compound: COc1cc2ncnc(Nc3ccc(F)c(Cl)c3)c2cc1OCCCN1CCOCC1 [GEFITINIB]
- IC50 (D-336MG): > 500 nM
- IC50 (GR-ST): > 500 nM
- IC50 (HCC1937): > 500 nM
- IC50 (K562): > 500 nM
- IC50 (KLE): > 500 nM
- IC50 (KYSE-510): > 500 nM
- IC50 (LU-139): > 500 nM
- IC50 (LXF-289 cell line): > 500 nM
- IC50 (SNU-C2B): > 500 nM
- IC50 (SW900): > 500 nM
- IC50 (A388): > 500 nM
- IC50 (C8166): > 500 nM
- IC50 (CAL-12T): > 500 nM
- IC50 (VMRC-RCZ): > 500 nM

Compound: CCc1cncnc1N1CCN(Cc2nc3cc(C(F)(F)F)ccc3[nH]2)CC1
- IC50 (BHT-101): 820 nM
